Holding throughout (assay): NCI anticancer screen, dose series, 48 h
Assay [1] has as its system M19-MEL.
Assay [2] relates to LXFL 529.
The subject of assay [3] is HOP-18.
For assay [4], the system named is RXF 631.
For assay [5], the system named is DMS-114.
Assay [6] relates to KM-20L2.
Assay [7] has as its system DLD-1.
The subject of assay [8] is DMS-273.
Assay [9] has as its system XF498.

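Grown in 96-well plates, cells were treated for 48 hours with each compound at five concentrations. Insufficient inhibition: endpoint recorded as highest concentration tested. Abbreviation: GI50, concentration required for 50% inhibition of growth.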 The source made the active and inactive calls. No stated cut-off is given here; in the data, active = GI50 up to about 1.1 µM and inactive = higher.

The record followed here is ChEMBL document CHEMBL1201862, “PubChem BioAssay data set” (2004).

Turning to `c1ccc(-c2csc3ncn4cnnc4c23)cc1`, the GI50 is > 100 µM (inactive) in assay [1]; 92.9 µM (inactive) in assay [2]; 52 µM (inactive) in assay [3]; 95.7 µM (inactive) in assay [4]; 57.9 µM (inactive) in assay [5]; > 100 µM (inactive) in [6]. Also, the GI50 in assay [7] is 82.2 µM (inactive); in assay [8] it was 72.8 µM (inactive).
`CCCCCCCCCC(=O)CC(=O)c1c(O)cccc1O`: the GI50 in assay [1] is 38.5 µM (inactive); in assay [9] it was 15.3 µM (inactive); in assay [2] it was 38.8 µM (inactive); in [3], 25.4 µM (inactive); in assay [5] it was 30.1 µM (inactive); in [6], 33.8 µM (inactive). The values for the GI50 in assay [7] and in [8] were 39.5 µM (inactive) and 20.8 µM (inactive), respectively.
Take `CN(N=O)C(=O)NC(CCCCNC(=O)OCc1ccccc1)C(=O)OCc1ccccc1` (configuration not stated): the GI50 in [1] is 27.1 µM (inactive); in assay [9] it was 13.2 µM (inactive); in assay [2], 28.5 µM (inactive); in assay [4] it was 19.9 µM (inactive); in assay [5] it was 29 µM (inactive); in assay [6] it was > 100 µM (inactive). In addition, the figures for the GI50 in assay [7] and in assay [8] were 33.8 µM (inactive) and 33.2 µM (inactive), respectively.
`COc1nc2c(nc(N)n2C2OC(CO)C(O)C(O)C2O)c(=O)n1C` (configuration not stated): the GI50 in assay [1] is > 100 µM (inactive); in assay [9] it was 75.3 µM (inactive); in assay [2], > 100 µM (inactive); in assay [3], > 100 µM (inactive); in assay [4], > 100 µM (inactive); in [5], > 100 µM (inactive). The GI50 in [6] and in [7] was > 100 µM (inactive) each time.
Take `C=C1C(=O)OC2/C=C(\COC(C)=O)CCC(OC(C)=O)C3=CC(OC3=O)C12` (configuration not stated): the GI50 in assay [9] was 2.39 µM (inactive); in [2], 1.67 µM (inactive); in [4], 8.13 µM (inactive); in [5] it was 1.47 µM (inactive); in [6], 6.98 µM (inactive); in assay [7], 2.33 µM (inactive). In [8], the GI50 is 6.81 µM (inactive).
With `O=C(/C=C/c1ccc(OCC(=O)N2CCN(c3ccccc3)CC2)cc1)c1ccccc1`, the GI50 in assay [1] is 11.3 µM (inactive); in assay [2], 19.9 µM (inactive); in [3], > 50 µM (inactive); in assay [6], 8.95 µM (inactive); in assay [7] it was 7.31 µM (inactive); in assay [8], 2.99 µM (inactive).
With `O=C1O[C@@H](c2ccc3c(c2)OCO3)C2C(=O)O[C@@H](c3ccc4c(c3)OCO4)C12` (some centres not stated), the GI50 was > 100 µM (inactive) in assay [1]; 25.8 µM (inactive) in assay [9]; > 100 µM (inactive) in assay [3]; > 100 µM (inactive) in assay [4]; > 100 µM (inactive) in [5]; > 100 µM (inactive) in [6]. Besides, in [8], the GI50 was > 100 µM (inactive).
Turning to `Cc1cccc(NC(=O)CSc2nnc(-c3ccc(/N=C\c4ccc(Cl)cc4)cc3)o2)c1`, the GI50 in [1], in assay [9], in assay [2], in assay [3], in assay [5] and in assay [6] was > 100 µM (inactive) throughout. For the same molecule, the GI50 in [8] was > 100 µM (inactive).
For the molecule `Nc1nccc2c1ncn2C1C=C(CO)C(O)C1O` (configuration not stated), the GI50 in assay [1] is 62.5 µM (inactive); in assay [9], > 46 µM (inactive); in [2], > 89.1 µM (inactive); in assay [3], > 96.6 µM (inactive); in [4] it was 83.6 µM (inactive); in [5], 13.9 µM (inactive). The figures for the GI50 in [6], in [7] and in assay [8] were > 87.1 µM (inactive), 63.4 µM (inactive) and 25.6 µM (inactive), respectively.
Consider `CC1=C(C(=O)Nc2ccccc2)C(c2ccc(C3C(C(=O)Nc4ccccc4)=C(C)NC(C)=C3C(=O)Nc3ccccc3)cc2)C(C(=O)Nc2ccccc2)=C(C)N1`, for which the GI50 was 3.5 µM (inactive) in assay [1]; 7.36 µM (inactive) in assay [9]; 2.1 µM (inactive) in [2]; 8.22 µM (inactive) in assay [3]; 3.83 µM (inactive) in [5]; 2.04 µM (inactive) in assay [6]. The GI50 in assay [7] is 2.38 µM (inactive); in [8] it was 2.62 µM (inactive).
`CNC(=S)/N=C(\N)N(C)C`: the GI50 in [1], in [9], in [2], in [3], in assay [5] and in assay [6] was > 100 µM (inactive) throughout. In addition, the GI50 in assay [7] and in [8] was > 100 µM (inactive) in each case.
Regarding `Oc1ccc(Br)cc1/C=N/c1ccc(/N=C/c2cc(Br)ccc2O)cc1`, the GI50 in [5], in assay [6] and in assay [7] was > 100 µM (inactive) throughout.
For the molecule `COc1ccccc1C1C(Cl)C(=O)N1NC(=O)Cc1ccccc1` (configuration not stated), the GI50 in [1] was > 100 µM (inactive); in assay [9] it was > 100 µM (inactive); in [2] it was > 100 µM (inactive); in assay [3] it was 30.7 µM (inactive); in assay [5] it was 37.5 µM (inactive); in [6] it was 75.9 µM (inactive). Further, in assay [8], the GI50 was 43.3 µM (inactive).
As to `CCOC(=O)NC(=O)c1cn(CCCCCCCCCCC(=O)NCCCN2CCN(CCCNC(=O)CCCCCCCCCCn3cc(C(=O)NC(=O)OCC)c(=O)[nH]c3=O)CC2)c(=O)[nH]c1=O`, the GI50 in assay [1], in assay [9], in assay [2], in assay [3], in assay [5] and in assay [6] was > 100 µM (inactive) in each case. For the same molecule, the GI50 in assay [7] and in assay [8] was > 100 µM (inactive) each time.
`CC1=C(/C=C/C(C)=C/C2CC(N(C)C)=CC(=O)O2)C(C)(C)CCC1` (configuration not stated): the GI50 in assay [1] is 14.3 µM (inactive); in assay [9] it was 12.4 µM (inactive); in assay [2], 11.7 µM (inactive); in assay [3] it was 13.6 µM (inactive); in assay [4] it was 13.1 µM (inactive); in [5], 10.8 µM (inactive). In addition, the GI50 was 15.3 µM (inactive) in assay [7] and 13.4 µM (inactive) in assay [8].
In the case of `CCOC(=O)C(C)c1cc(C2(C)OCCO2)c(C)o1` (configuration not stated), the GI50 in assay [1], in assay [9], in assay [2], in assay [3], in assay [4] and in assay [5] was > 100 µM (inactive) throughout. For the same molecule, the GI50 in assay [6], in assay [7] and in [8] was > 100 µM (inactive) in each case.
With `Cc1c(C)c(CC(=O)N2CC2)c(C)c(C)c1CC(=O)N1CC1`, the GI50 was 12.9 µM (inactive) in [1]; 14.1 µM (inactive) in assay [2]; 28.4 µM (inactive) in [3]; 11.5 µM (inactive) in [5]; 17.3 µM (inactive) in [6]; 17.5 µM (inactive) in [7]. For the same molecule, the GI50 in assay [8] is 2.18 µM (inactive).
Turning to `COC(=O)C(CCC1(C)OCCO1)=[N+]=[N-]`, the GI50 in assay [9], in assay [2], in assay [3], in [4], in [5] and in [6] was > 100 µM (inactive) throughout. Moreover, the GI50 in assay [7] and in assay [8] was > 100 µM (inactive) throughout.
`COc1c(OC(C)=O)c(OC(C)=O)cc2c1-c1ccc(SC)c(=O)cc1C(NC(C)=O)CC2` (configuration not stated): the GI50 in assay [1] was 0.57 µM (active); in assay [9], 1.04 µM (active); in assay [2], 0.368 µM (active); in assay [3] it was > 100 µM (inactive); in assay [6] it was 0.7 µM (active); in assay [7], 0.908 µM (active). Moreover, the GI50 in assay [8] was 0.895 µM (active).
Regarding `CCOC(=O)C1=C(C)N(NC(=O)Nc2ccccc2)C(=O)C1=P(c1ccccc1)(c1ccccc1)c1ccccc1`, the GI50 in assay [1] was 32.6 µM (inactive); in assay [9], 31.8 µM (inactive); in assay [2] it was 35.2 µM (inactive); in [3], 58.1 µM (inactive); in assay [5] it was 32.2 µM (inactive); in assay [6], 40.6 µM (inactive). In addition, the GI50 in [7] was 33.6 µM (inactive); in assay [8], 40.6 µM (inactive).
Consider `CCOC(=O)N(c1ccccc1)N(CC)C(=O)/C(C)=N/Nc1ccc([N+](=O)[O-])cc1`, for which the GI50 in [1] is 17.5 µM (inactive); in assay [9] it was 17.9 µM (inactive); in assay [2], 16.6 µM (inactive); in assay [3], 19.7 µM (inactive); in assay [5] it was 17.9 µM (inactive); in assay [6] it was 17.1 µM (inactive). Moreover, the GI50 was 15.4 µM (inactive) in assay [7] and 15.6 µM (inactive) in assay [8].
Regarding `Nc1ccc(/N=N/c2ccc(-c3ccc(/N=N/c4c(S(=O)(=O)O)cc5cc(S(=O)(=O)O)c(/N=N/c6ccc([N+](=O)[O-])cc6)c(N)c5c4O)cc3)cc2)c2cc(S(=O)(=O)O)ccc12`, the GI50 in assay [1], in assay [9], in [2], in [6], in [7] and in assay [8] was > 100 µM (inactive) each time.
As for `c1cc(C2O[C@H]3CCCN3[C@@H]2c2ccncc2)ccn1` (some centres not stated), the GI50 in [1], in assay [9], in assay [2], in assay [5], in assay [6] and in assay [7] was > 100 µM (inactive) each time. For the same molecule, the GI50 in [8] was > 100 µM (inactive).
Take `COc1cc(/C=C(\C#N)C(N)=C(C#N)C#N)cc(O)c1O`: the GI50 in assay [1] was > 100 µM (inactive); in [9], > 100 µM (inactive); in assay [2], > 100 µM (inactive); in assay [5], 47 µM (inactive); in [6], > 100 µM (inactive); in assay [7] it was > 100 µM (inactive). The GI50 in assay [8] is > 100 µM (inactive).
For `COc1cc([C@@H]2c3cc4c(c(O)c3C[C@H]3COC(=O)[C@@H]32)OCO4)cc(OC)c1O`, the GI50 was 0.237 µM (active) in [1]; 0.00257 µM (active) in assay [2]; < 0.02 µM (active) in [3]; < 0.02 µM (active) in [5]; < 0.02 µM (active) in assay [8].
